From PubChem BioAssay (NCI)
“And” between values parts separate entries of the source, which are not always exact repeats. Equal values may be shown once.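 Each compound was tested at five concentrations against cells in 96-well plates for 48 hours. The concentration for 50% growth inhibition is given as GI50. TGI denotes the concentration required for complete inhibition of growth.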

How the values were obtained:
Assay in all cases: NCI tumour cell line growth inhibition, 48 h
[1] = system: NCI-H460 lung
[2] = system: A498 renal
[3] = system: RXF 393 renal
[4] = system: SR leukemia
[5] = system: TK-10 renal
[6] = system: SK-MEL-28 melanoma
[7] = system: M14 melanoma
[8] = system: HS 578T breast
[9] = system: MCF7 breast
[10] = system: T-47D breast

| SMILES | TGI [1] | TGI [2] | TGI [3] | TGI [4] | TGI [5] | TGI [6] | TGI [7] | GI50 [1] | GI50 [8] | TGI [8] | GI50 [2] | GI50 [3] | GI50 [9] | TGI [9] | GI50 [5] | GI50 [10] | TGI [10] | GI50 [6] | GI50 [7] | GI50 [4] |
| --- | --- | --- | --- | --- | --- | --- | --- | --- | --- | --- | --- | --- | --- | --- | --- | --- | --- | --- | --- | --- |
| C/C(=N\NC(N)=S)c1cc(C)c(C)cc1C | > 100 µM | > 100 µM | 97.2 µM | > 100 µM | > 100 µM | > 100 µM | > 100 µM |  |  |  |  |  |  |  |  |  |  |  |  |  |
| O=C(C=Nc1ccccc1C(=O)[O-])c1cccs1.O=C(C=Nc1ccccc1C(=O)[O-])c1cccs1.[Co+2] | > 100 µM | > 100 µM |  | > 100 µM | > 100 µM | > 100 µM | > 100 µM |  |  |  |  |  |  |  |  |  |  |  |  |  |
| CCOc1ccccc1NC(=O)c1cc2ccccc2cc1O | 7.03 µM | 5.55 µM | 7.62 µM |  | 10.3 µM | 20.2 µM | 11 µM | 2.94 µM | 2.85 µM | 7.14 µM | 2.16 µM | 2.63 µM | 2.49 µM | 13.1 µM | 4.08 µM | 2.67 µM | 14.5 µM | 4.91 µM | 3.15 µM |  |
| CC1(Cl)CC2OC3(Br)C=CC(C)(O)C2(CC1Br)C3(C)C (centres undefined) | > 100 µM | > 100 µM | > 100 µM | > 100 µM | > 100 µM | > 100 µM | > 100 µM |  |  |  |  |  |  |  |  |  |  |  |  |  |
| C/C=C/C1=C(Cl)C(=O)[C@@H](Cl)[C@@]1(O)C(=O)OC | 15.2 µM | 14.3 µM | 4.76 µM | 21.7 µM | 9.14 µM | 14.2 µM | 11.9 µM |  |  |  |  |  |  | 3.89 µM |  |  |  |  |  |  |
| CC1OC(n2ccc(=O)[nH]c2=O)C=C(OC(=O)c2ccccc2)C1=O (centres undefined) | > 100 µM |  | > 100 µM |  | > 100 µM | > 100 µM | > 100 µM |  |  |  |  |  |  |  |  |  |  |  |  |  |
| CCC1C(=O)OCc2c1cc1n(c2=O)Cc2cc3ccccc3nc2-1 (centres undefined) | 64.4 µM | 49 µM | > 94.9 µM |  | > 100 µM | > 100 µM | 13.7 µM |  |  | > 100 µM |  |  |  | > 48.6 µM |  |  | > 90.2 µM |  |  |  |
| O=C(CCC(=O)Nc1cccc(Cl)c1)CC(=O)c1ccc(F)cc1 | > 100 µM |  |  | > 100 µM | > 100 µM | > 100 µM | > 100 µM |  |  |  |  |  |  |  |  |  |  |  |  |  |
| Nc1ncnc2c1ncn2Cc1ccc(C23CC4CC(CC(C4)C2)C3)c(OCc2cc(F)c(F)cc2F)c1 | > 100 µM | > 100 µM | 8.36 µM |  | > 100 µM | > 100 µM |  | 4.33 µM | 52 µM | > 100 µM | > 100 µM | 2.02 µM | 6.37 µM | 30.2 µM | 4.37 µM | > 100 µM | > 100 µM | > 100 µM |  |  |
| [Cl][Sn]([Cl])([c]1ccccc1)[c]1ccccc1 |  |  |  | 25.7 µM | 29.7 µM | 6.53 µM | 29 µM |  |  |  |  | 2.79 µM |  |  | 15.7 µM |  |  | 2.43 µM | 15.3 µM | 3.93 µM |
| O=S(=O)(N/N=C/c1ccc(Cl)c(Cl)c1)c1ccccc1 |  | 92.5 µM | 63.2 µM | > 100 µM | > 100 µM | > 100 µM | > 100 µM |  |  |  |  |  |  |  |  |  |  |  |  |  |
| CCOC(=O)c1c(-c2ccccc2)oc(-c2ccccc2)c1C(=O)OCC |  | > 100 µM | > 100 µM | > 100 µM | > 100 µM | > 100 µM | > 100 µM |  |  |  |  |  |  |  |  |  |  |  |  |  |
| Cn1c2c(c3ccccc31)CCN(CCN1CCN(c3ccccc3)CC1)C2=O | > 100 µM |  | 83.4 µM |  | > 100 µM | > 100 µM | > 100 µM |  |  |  |  |  |  |  |  |  |  |  |  |  |
| COc1cc2c(cc1O)-c1c(cnn1-c1ccc([N+](=O)[O-])cc1)CCC2 | > 100 µM | 80.3 µM | > 100 µM |  | 32.6 µM | > 100 µM | 49.6 µM |  |  | 81.8 µM |  |  |  | > 100 µM |  |  | > 100 µM |  |  |  |
| O=C1CC(c2cccc(O)c2)C2(C(=O)NC(=S)NC2=O)C(c2cccc(O)c2)C1 (centres undefined) | > 100 µM | > 100 µM | > 100 µM |  | > 100 µM | > 100 µM | > 100 µM | > 100 µM | > 100 µM | > 100 µM | > 100 µM | > 100 µM | > 100 µM | > 100 µM | > 100 µM | > 100 µM | > 100 µM | > 100 µM | > 100 µM |  |
| CC(=O)O[C@@]12CO[C@@H]1C[C@H](O)[C@@]1(C)C(=O)[C@H](O)C3=C(C)[C@@H](OC(=O)[C@H](O)[C@@H](NC(=O)OC(C)(C)C)c4ccccc4)C[C@@](O)([C@@H](OC(=O)c4ccccc4)[C@H]21)C3(C)C | 41 µM | 56.1 µM |  | 23.5 µM |  | 36.5 µM | 0.281 µM | 0.000351 µM |  |  | 0.0518 µM | 0.0252 µM and 0.0165 µM |  | 78.4 µM | 0.0327 µM and 0.00788 µM |  |  | 0.0327 µM and 0.0359 µM | 0.0154 µM and 0.0205 µM | 0.0154 µM and 0.00407 µM |
| N#C/C(=N\Nc1ccc(Cl)cc1)C(=O)Nc1cc(-c2ccccc2)nn1-c1ccccc1 | > 100 µM |  | 6.32 µM | > 100 µM | > 100 µM | > 100 µM | > 100 µM | 2.51 µM | 3 µM | > 100 µM |  | 2.06 µM |  |  | 4.82 µM | 2.01 µM | 7.12 µM | 3.62 µM | 3.7 µM | 3.59 µM |
| O=c1c2ccccc2c(Br)c(Br)c2ccccc12 | 34.5 µM | 23 µM | 12.7 µM |  | 18 µM | > 100 µM | 16.3 µM | 14.5 µM | 11.8 µM | 42.1 µM | 5.37 µM | 3.32 µM | 5.6 µM | 46.1 µM | 3.91 µM | 4.43 µM | 32.3 µM | 24.9 µM | 4.8 µM |  |
| COc1cc(C(=O)N2N=C(c3ccc(S(C)(=O)=O)cc3)CC2c2ccco2)cc(OC)c1OC (centres undefined) | > 100 µM | > 100 µM | 56 µM |  | > 100 µM | > 100 µM | > 87.6 µM | 3.51 µM | 5.42 µM | > 100 µM | 5.15 µM | 4.74 µM | 2.89 µM | > 100 µM | 29 µM | 3.79 µM | > 100 µM | 22.2 µM | 5.81 µM |  |
